In brackets after ≈: the same amount, converted by molar mass.
Legend:
E. coli ATCC 25922 = experiment: Broth microdilution antimicrobial assay (MIC, IC50); format: cell-based; settings: Escherichia coli, 24 h; for MIC: ATCC25922, broth microdilution, 37°C; for IC50: ATCC25922, 50% growth inhibition, read-out: IC50 [95% confidence interval] Escherichia coli
Experimental: (§1) Reference strains of Staphylococcus aureus (ATCC 25923), Escherichia coli (ATCC 25922), and Candida albicans (ATCC 10231) were used in this study as microbial models. These strains were purchased from the American Type Culture Collection (ATCC); bacterial cultures were routinely grown on 5% blood agar plate, while fungal cultures on Sabouraud Dextrose Agar (Biolife […]., Milan, Italy). […] In short, microbial inocula were prepared at 0.5 McFarland in PBS and, subsequently, bacterial suspensions were diluted 1:200 in Mueller-Hinton broth (Sigma-Aldrich, St. Louis, MO, USA), while fungal inoculum was diluted 1:20 in RPMI-1640 medium (Gibco®, ThermoFisher Scientific Inc., Waltham, MA, USA), containing glucose 2%, 0.3% levo-glutamine buffered to pH 7.0 with 0.165 M 3-(N-morpholino) propanesulfonic acid (MOPS). A total of 100 μL of these microbial suspensions was introduced into a 96-well microplate and incubated with 100 μL of the compounds, two-fold serially diluted in the range of 100-0.19 μM. Positive controls (microbial suspensions in regular media), negative controls (only compounds), and solvent controls (microbial suspensions incubated with DMSO dilutions) were included in the tests. The plate was incubated at 37°C for 24 h, and subsequently the optical density at 630 nm (OD630nm) was spectrophotometrically measured. Experiments were carried out in triplicate in three biological replicates. […] Statistical analysis was carried out by using GraphPad Prism version 9.4.1 for Windows (GraphPad Software, San Diego, California USA, www.graphpad.com). ^a MIC (Minimum Inhibitory Concentration) were determined in vitro by means of a standardized microdilution assay, in compliance with the Clinical and laboratory Standard Institute (CLSI) guidelines (30). Microbial suspensions were prepared at 0.5 McFarland in PBS, then diluted in the media and transferred in a 96 micro-well plate together with the serially 2-fold dilutions of the compounds. After 24h of incubation at 37°C, microbial growths were evaluated by measuring the Optical Density at 600 nm, then percentage values were obtained as relative to the positive controls (microbial suspensions in regular media).

C. albicans ATCC 10231 = experiment: as above; format: cell-based; settings: Candida albicans, 24 h; for IC50: ATCC10231, 50% growth inhibition, read-out: IC50 [95% confidence interval] Candida albicans; for MIC: ATCC10231, broth microdilution, 37°C
Experimental: as §1

S. aureus ATCC 25923 = experiment: as above; format: cell-based; settings: Staphylococcus aureus; for IC50: ATCC25923, 50% growth inhibition, 24 h, read-out: IC50 [95% confidence interval] Staphylococcus aureus; for MIC: ATCC25923, 24 h, broth microdilution, 37°C
Experimental: as §1

[1] = Cell viability and proliferation assay (WST8/CCK-8); format: cell-based; settings: African green monkey, Vero cells (ATCC CCL-81), 48 h treatment, CCK-8; read-out: CC50 [95% CI] Vero cells
Experimental: Vero cell line (ATCC CCL‐81) was selected as a model system to investigate the overall effect of chalcones on non‐malignant mammalian cells. […] For experiments, cells were seeded into 96‐well plates at 10^4 cells/well and incubated at 37°C for 24 h. Following washes with PBS, the cell monolayer was incubated with 100 µL of medium containing the twofold serial dilutions of the compounds. Both untreated cells and cells incubated with medium containing solvent dilutions were included in each experiment as controls. The cell viability was assessed by a WST8‐based assay according to the manufacturer's instructions (CCK‐8, Cell Counting Kit‐8, Dojindo Molecular Technologies, Rockville, MD, USA). After 48 h of incubation, culture medium was removed from each well, the monolayer was washed with PBS, and 100 µL of fresh medium containing 10 µL of CCK‐8 solution was added. Following a 2 h incubation at 37°C, the OD450nm was read, and data were expressed as the percentage of cell viability relative to the untreated controls. The CC50 was obtained on the corresponding dose–response curves generated as previously reported for IC50 values. Experiments were carried out in triplicate in three biological replicates.

E. coli = experiment: Colistin association assay; format: cell-based, Escherichia coli; settings: colistin at sub-inhibitory concentration (MIC/8 = 0.027 µM)
Experimental: This is a confirmation of the ability of these new QPySs to also affect Gram‐negative proliferation once they pass through the OM.
The dry powder of the chalcone‐based QPySs was resuspended in dimethylsulfoxide (DMSO) at 20 mM and used as stock solutions. For biological investigations, compounds were used in the range 100–0.78 µM, and the solvent in the corresponding percentage range. The following commercially available antimicrobials and toxic clinical drugs were purchased from Sigma‐Aldrich (St. Louis, MO, USA), dissolved in water, and used as reference controls. Gentamicin and ampicillin were used in the range 107.69–0.82 µM and 143.23–1.12 µM, respectively; the colistin was used at 0.03 µM in association with the chalcone‐based QASs with E. coli. The fluconazole was used in the assays with C. albicans in the range 3.27–0.03 µM. […]
In short, microbial inocula were prepared at 0.5 McFarland in PBS and, subsequently, bacterial suspensions were diluted 1:200 in Mueller–Hinton broth (Sigma‐Aldrich, St. Louis, MO, USA), while fungal inoculum was diluted 1:20 in RPMI‐1640 medium (Gibco®, ThermoFisher Scientific Inc., Waltham, MA, USA), containing glucose 2%, 0.3% levo‐glutamine buffered to pH 7.0 with 0.165 M 3‐(N‐morpholino) propanesulfonic acid (MOPS). […] The plate was incubated at 37°C for 24 h, and subsequently the optical density at 630 nm (OD630nm) was spectrophotometrically measured. […]

[2] = test system: S. aureus ATCC 25923, E. coli ATCC 25922, C. albicans ATCC 10231; experiment: Broth microdilution antimicrobial assay, statements pooled over the three strains; format: cell-based; settings: stated for S. aureus, E. coli and C. albicans together; read-out: MIC toward the three selected strains
Experimental: The antimicrobial activity of the compounds was assessed by determining the Minimum Inhibitory Concentration (MIC) by a well‐established broth microdilution procedure in microtiter plates and in compliance with the Clinical and Laboratory Standards Institute (CLSI) guidelines.
In short, microbial inocula were prepared at 0.5 McFarland in PBS and, subsequently, bacterial suspensions were diluted 1:200 in Mueller–Hinton broth (Sigma‐Aldrich, St. Louis, MO, USA), while fungal inoculum was diluted 1:20 in RPMI‐1640 medium (Gibco®, ThermoFisher Scientific Inc., Waltham, MA, USA), containing glucose 2%, 0.3% levo‐glutamine buffered to pH 7.0 with 0.165 M 3‐(N‐morpholino) propanesulfonic acid (MOPS). A total of 100 µL of these microbial suspensions was introduced into a 96‐well microplate and incubated with 100 µL of the compounds, two‐fold serially diluted in the range of 100–0.19 µM. Positive controls (microbial suspensions in regular media), negative controls (only compounds), and solvent controls (microbial suspensions incubated with DMSO dilutions) were included in the tests. The plate was incubated at 37°C for 24 h, and subsequently the optical density at 630 nm (OD630nm) was spectrophotometrically measured. Experiments were carried out in triplicate in three biological replicates. […]

[3] = test system: human red blood cells (hRBCs); experiment: Hemolytic activity assay; format: cell-based; settings: 25 µM, 90 min, 37°C
Experimental: The hemolytic activity of some selected compounds was evaluated as the amount of hemoglobin released by the disruption of human red blood cells (hRBCs). For the experiments, fresh hRBCs were collected by centrifugation at 1500g for 10 min, washed three times with PBS, and resuspended to a final concentration of 4% w/v hRBCs in PBS. Then, 100 µL of hRBCs suspension and an equal volume of the twofold dilutions of the antimicrobial peptides were mixed in a 96‐well plate and incubated for 90 min at 37°C. After centrifugation at 1000g for 5 min, the supernatants were transferred into a clear 96‐well plate, and OD405nm was read. Untreated hRBCs (incubated with PBS) and hRBCs incubated with 1% Triton X‐100 were employed as negative and positive controls, respectively. The hemolysis percentage was calculated as [OD405nm (sample) − OD4_05nm (negative control)]/[OD405nm (positive control) − OD405nm (negative control)] × 100. Minimal hemolytic concentrations (MHCs) were defined as the compound concentration causing 10% hemolysis. Three independent experiments were performed in triplicate.

| MIC (E. coli ATCC 25922) | IC50 (C. albicans ATCC 10231) | MIC (C. albicans ATCC 10231) | IC50 (S. aureus ATCC 25923) | MIC (S. aureus ATCC 25923) | IC50 (E. coli ATCC 25922) | MIC [2] | Compound | CC50 at 48 h [1] | MIC Escherichia coli in association with colistin (E. coli) | hemolytic activity [3] |
| --- | --- | --- | --- | --- | --- | --- | --- | --- | --- | --- |
| > 100 µM | 52.5 µM | > 100 µM | 14.2 µM | 100 µM | – | – | C#CCOc1ccc(C(=O)/C=C/c2ccc[n+](CCCCCCCCCCCCCCCCCC)c2)c(OCC#C)c1 [Compound 8, (E)‐3‐{3‐[2,4‐Bis(prop‐2‐yn‐1‐yloxy)phenyl]‐3‐oxoprop‐1‐en‐1‐yl}‐1‐octadecylpyridin‐1‐ium bromide] | 5.73 µM | – | – |
| 12.5 µM | 30.5 µM | 50 µM | 2.65 µM | 6.25 µM | 11 µM | – | C#CCOc1ccc(C(=O)/C=C/c2ccc[n+](CCCCCCCC)c2)c(OCC#C)c1 [Compound 3, (E)‐3‐{3‐[2,4‐Bis(prop‐2‐yn‐1‐yloxy)phenyl]‐3‐oxoprop‐1‐en‐1‐yl}‐1‐octylpyridin‐1‐ium bromide] | 47 µM | – | – |
| > 100 µM | 5.76 µM | 6.25 µM | 4.21 µM | 12.5 µM | – | – | C#CCOc1ccc(C(=O)/C=C/c2ccc[n+](CCCCCCCCCCCCCCCC)c2)c(OCC#C)c1 [Compound 7, (E)‐3‐{3‐[2,4‐Bis(prop‐2‐yn‐1‐yloxy)phenyl]‐3‐oxoprop‐1‐en‐1‐yl}‐1‐hexadecylpyridin‐1‐ium] | 5.38 µM | – | – |
| 13.1 µM (≈ 6.25 µg/mL) | – | – | 4 µM | 6.54 µM (≈ 3.12 µg/mL) | 6.11 µM | – | CNC(C)C1CCC(N)C(OC2C(N)CC(N)C(OC3OCC(C)(O)C(NC)C3O)C2O)O1 (stereo not shown) [GEN, gentamicin, reference compound] | – | – | – |
| 50 µM | 95 µM | 100 µM | 58.3 µM | 50 µM | 46 µM | ≥ 50 µM | C#CCOc1ccc(C(=O)/C=C/c2ccc[n+](CCCCCC[n+]3cccc(/C=C/C(=O)c4ccc(OCC#C)cc4OCC#C)c3)c2)c(OCC#C)c1 [Compound 10, 1,1′‐(Hexane‐1,6‐diyl)bis{3‐[(E)‐3‐(2,4‐bis‐prop‐2‐yn‐1‐yloxyphenyl)‐3‐oxoprop‐1‐en‐1‐yl]pyridin‐1‐ium} bromide] | > 100 µM | – | – |
| 6.25 µM | 1.57 µM | 3.12 µM | 1.62 µM | 3.12 µM | 5.88 µM | – | C#CCOc1ccc(C(=O)/C=C/c2ccc[n+](CCCCCCCCCCCC)c2)c(OCC#C)c1.[Br-] [Compound 5, (E)‐3‐{3‐[2,4‐Bis(prop‐2‐yn‐1‐yloxy)phenyl]‐3‐oxoprop‐1‐en‐1‐yl}‐1‐dodecylpyridin‐1‐ium bromide] | 14 µM | – | 40.9% |
| – | – | – | – | – | – | – | COc1cccc2c1C(=O)c1c(O)c3c(c(O)c1C2=O)C[C@@](O)(C(=O)CO)C[C@@H]3O[C@H]1C[C@H](N)[C@H](O)[C@H](C)O1 [DOX, doxorubicin, reference compound] | 70.6 µM | – | – |

| Compound | MIC (E. coli ATCC 25922) | IC50 (C. albicans ATCC 10231) | MIC (C. albicans ATCC 10231) | IC50 (S. aureus ATCC 25923) | MIC (S. aureus ATCC 25923) | IC50 (E. coli ATCC 25922) | MIC [2] | CC50 at 48 h [1] | MIC Escherichia coli in association with colistin (E. coli) | hemolytic activity [3] |
| --- | --- | --- | --- | --- | --- | --- | --- | --- | --- | --- |
| OC(Cn1cncn1)(Cn1cncn1)c1ccc(F)cc1F [FLC, fluconazole, reference compound] | – | 0.23 µM | 0.82 µM (≈ 0.251 µg/mL) | – | – | – | – | – | – | – |
| C#CCOc1ccc(C(=O)/C=C/c2ccc[n+](CCCCCC)c2)c(OCC#C)c1.[Br-] [Compound 2, (E)‐3‐{3‐[2,4‐Bis(prop‐2‐yn‐1‐yloxy)phenyl]‐3‐oxoprop‐1‐en‐1‐yl}‐1‐hexylpyridin‐1‐ium bromide] | > 100 µM | 68.7 µM | 100 µM | 34.4 µM | 50 µM | – | – | > 100 µM | 50 µM | – |
